In one series the test system is mouse jejunal organoids. Description: GLP-1 secretion in mouse jejunal organoids (GLP-1 Active ELISA of supernatants). The class given is cell-based. The note with it: Phe 20 mM, peptide 1 mM, n = 3. Here is the method: Mouse intestinal organoids (enteroids) were derived from adult intestinal stem cells (ISCs). Intestinal crypts were isolated from the jejunum of male and female wild-type mice following the protocol provided by STEMCELL Technologies. Crypts were cultured at 37 °C until organoids were fully developed (5–7 days). Intestinal organoids were suspended in 10 mL of cold DMEM/F12 (Lonza, Basel, Switzerland), and the crypts were suspended in a mixture (50:50) of Matrigel (Corning, NY, USA) and complete IntestiCult Organoid Growth Medium (STEMCELL Technologies, Vancouver, Canada). This mix was gently placed in the center of each well of a prewarmed 24-well plate until the Matrigel solidified and formed a dome. IntestiCult Organoid Growth Medium (STEMCELL Technologies, Vancouver, Canada) was added, and crypts were cultured at 37 °C and 5% CO2 until organoids were developed. After 7 days, the mouse intestinal organoids were passed following the STEMCELL Technologies protocol. The experiments were performed from passage numbers 1 to 6.
(§1) After hormonal secretion studies, GLP-1_7–36NH2 was measured in the supernatants of cells or organoids in duplicate with the commercial immunoassay Glucagon-Like Peptide-1 Active ELISA (Merck KGaA, Darmstadt, Germany), according to the manufacturer’s instructions.
In general terms: ELISA stands for enzyme-linked immunosorbent assay.

Series [1] deals with STC-1 cells. Description: GLP-1 secretion in STC-1 cells (GLP-1 Active ELISA of supernatants). The class given is cell-based. The note with it: Phe 20 mM, peptide 1 mM, n = 3. Here is the method:
STC-1 cells supplied by ATCC (ATCC CRL-3254, Manassas, VA, USA) were cultured in Dulbecco’s Modified Eagle’s Medium (ATCC, Manassas, VA, USA) supplemented with 100 U/mL penicillin, 100 mg/L streptomycin, 0.25 μg/mL amphotericin (Lonza Group, Basel, Switzerland), and 10% fetal bovine serum (ATCC, Manassas, VA, USA). Cells were incubated at 37 °C in a 5% CO2 humidified atmosphere, and once they reached 80% confluence, they were trypsinized and seeded according to each cell study. The experiments were performed from passage numbers 31–35.
(§2) Cells were cultured at 37 °C, 5% CO2, and a humidified atmosphere for 48 h into 24-well plates at a density of 3 × 10^5 cells per well.
as §1

For series [2], the system named is proglucagon gene expression. Kind of series: Relative proglucagon gene expression in organoids (qPCR). The note with it: 10 min, Phe 20 mM, 2^-ΔΔCt normalised to β-actin, versus control. In kind it is cell-based, mouse. As to the method:
(§3) For RNA isolation, frozen STC-1 cells or organoids were homogenized in QIAzol, and total RNA was isolated using the miRNeasy Mini Kit (Qiagen, Hilden, Germany). Total RNA was quantified in a NanoDrop 2000 spectrophotometer (Thermo Scientific, MA, USA). According to the instructions, total RNA was reverse transcribed to cDNA using a Script II RT Kit (Qiagen, Hilden, Germany). RNA expression levels were determined in duplicate by quantitative real-time PCR (qPCR) on a 7900HT Real-Time PCR System (Applied Biosystems), using miScript SYBR Green PCR Kits (Qiagen, Hilden, Germany).
(§4) Amplification was initiated at 50 °C for 2 min and at 95 °C for 10 min, followed by 40 cycles of 95 °C for 15 s and 60 °C for 1 min. The following specific oligonucleotides were used: for cholecystokinin (CCK) forward (F) 5′-[…]-3′ and reverse (R) 5′-[…]-3′; for GLP-1 (F) 5′-[…]-3′ and (R) 5′-[…]-3′; for peptide YY (PYY) (F) 5′-[…]-3′ and (R) 5′-[…]-3′; and for reference gene β-actin (F) 5′-[…]-3′ and (R) 5′-[…]-3′. The relative expression levels of the target gene were calculated using the comparative critical threshold method (2^–ΔΔCt), by normalizing the data to the expression of β-actin.
For orientation: In qPCR the cycle at which signal appears reflects the starting amount.

The test system of series [3] is CCK gene expression. Kind of series: Relative CCK gene expression in organoids (qPCR). In kind it is cell-based, mouse. The note with it: peptide 1 mM (induced at 60 min), Phe 20 mM (induced from 30 min), versus control. Here is the method: as §3, §4
Series [4] has as its system PYY gene expression. Description: Relative PYY gene expression in organoids (qPCR). In kind it is cell-based, mouse. The note with it: organoids, 10, 30, 60 min; EWD 2 mg/mL, Phe 20 mM, peptide 1 mM. Here is the method: as §3, §4
The test system of series [5] is CCK gene expression. Kind of series: Relative CCK gene expression in STC-1 cells (qPCR). In kind it is cell-based. The note with it: 60 min, Phe 20 mM. As to the method:
as §2, §3, §4

Series [6] concerns PYY gene expression. Kind of series: Relative PYY gene expression in STC-1 cells (qPCR). The note with it: 60 min, Phe 20 mM. In kind it is cell-based. Here is the method: as §2, §3, §4
For a further series, the system named is p-IRS. Description: Immunoblotting p-IRS/IRS in STC-1 cells. In kind it is cell-based. The note with it: peptide 1 mM, EWD 2 mg/mL, Phe 20 mM, 5, 15, 30, 60 min, immunoblot. Here is the method:
[…]; then, cells were lysed with RIPA buffer, and ERK1/2, p-ERK1/2, AMPK, p-AMPK, p-IRS-1, IRS-1, glyceraldehyde-3-phosphate dehydrogenase (GAPDH), and heat shock protein (HSP90) contents were examined using immunoblotting. Protein samples were lysed, separated on 10% SDS-polyacrylamide gels, and the separated proteins were electroblotted from the gel onto nitrocellulose membranes ([…], Millipore, MA, USA) and blocked with skim milk for 30 min at room temperature. Membranes were incubated with primary antibodies overnight at 4 °C. After incubation, membranes were exposed to secondary antibodies for 45 min at room temperature. Blots were rinsed three times with Tris-buffered saline with Tween 20, pH 8.0, after each incubation step and visualized using an Odyssey infrared imaging system (LI-COR, Lincoln, NE, USA).
(Immunoblotting shows a protein as a band on a membrane.)

The subject of series [7] is STC-1 cells. The note with it: earlier screening in STC-1; ref authors' previous study (number not given); cited from earlier work. Here is the method:
Later, other authors, using the enteroendocrine cell line STC-1, have related the GLP-1-inducing effect to peptides of molecular mass between […], and it was shown that peptides present a greater induc ... || There is little information about the structural features necessary to induce secretion by enteroendocrine cells of GLP-1. The organoid cellular media collected at 60 min were analyzed by HPLC–MS/MS in order to assess the possible proteolysis of the assayed peptides during the incubation. The small intestine brush border has different enzymes, oligopeptidases, lipases, and carbohydrases that contribute to nutrient hydrolysis and absorption. Other authors have described that enterocytes present in mouse intestinal organoids have mature brush borders, with the presence of their typical enzymes, ...

Series [8] deals with mouse intestinal organoids.
Description: On the day of the experiment, the medium was discarded, and the Matrigel was removed with cold PBS. Next, the organoids were centrifuged for 3 min at 300 × g, the medium was discarded, and after three washes, the organoids were resuspended in saline buffer (20 mM HEPES 1 M, 1 mM glucose, 140 mM NaCl, 4.5 mM KCl, 1.2 mM CaCl2, 1.2 mM MgCl2, 0.1% BSA, pH 7.4). The organoids were incubated for 40 min at 37 °C in this buffer. These organoids were resuspended in a new saline buffer and transferred to 96-well plates at a 60 organoids per well-ratio. The samples (EWD at 2 mg/mL, Phe at 20 mM, and synthetic peptide at 1 mM) were diluted in saline buffer, added to the well, and assayed in triplicate. […] After 10, 30, and 60 min, the plate was centrifuged for 3 min at 300 × g, supernatants were collected, organoids were lysed with QIAzol (Qiagen, Hilden, Germany), and samples were stored at −80 °C for further analysis.
The percentage of each sequence was calculated relative to the total area in each sample.

Where no end group is shown, it is not given here.

On to `N[C@@H](Cc1ccccc1)C(=O)O` [Phe, Phenylalanine], for which, in the series with mouse jejunal organoids (10, 30 and 60 min, EWD 2 mg/mL), the “GLP-1 release in organoids versus control, in words” value is reported as “faster GLP-1 induction was observed in the case of Phe (10 min)”. Further, the “GLP-1 release in organoids” value in the series on mouse jejunal organoids (60 min, 60 organoids per well in saline buffer pH 7.4, 37 °C, ELISA, mean ± SEM) was determined as 43.7 ± 1 pM. Further, the “GLP-1 release in STC-1 cells versus control, in words” value in the series on STC-1 cells [1] (10, 30 and 60 min, EWD 2 mg/mL) is on record as “only reached significance after incubation with the peptide or Phe for 60 min”. For the same molecule, the “GLP-1 induced in STC-1 cells” value with STC-1 cells [1] (HEPES buffer pH 7.4, time not printed at the place (60 min by b40), ELISA, mean ± SEM) is 416.6 ± 40.1 pM. In addition, in series [2], the “Relative proglucagon gene expression” value worked out at 1.8 fold change. Besides, the “CCK gene expression, maximum fold change” value in the series on CCK gene expression [3] is listed as 2.8 fold change. The “PYY gene expression versus control, in words” value with PYY gene expression [4] is “an effect of both the peptide and Phe was observed at 10 min, with Phe keeping the increased expression at 30 min”. For the same molecule, the CCK gene overexpression in the series with CCK gene expression [5] is reported as 4 fold. The molecule further gave a PYY gene overexpression with PYY gene expression [6] of 2 fold. Besides, in the series on p-IRS, the “p-IRS expression versus control, in words” value is recorded as “p-IRS overexpression at all time points”.
For “IRGCRL [124IRGCRL129, hexapeptide, shorter form of 123WIRGCRL129 found in organoid supernatants]”, in the series with STC-1 cells [7], the “GLP-1 secretion in STC-1 cells, in words” value is listed as “induce GLP-1 in STC-1, although at lower levels than the tryptophan-containing precursor peptide”.
On to WARGCRL [WARGCRL], for which the “Susceptibility to peptidases in organoids, in words” value in [8] is “most susceptible sequences to the action of peptidases”.
Same read-out and setting: for WIRACRL [WIRACRL] the value was “most susceptible sequences to the action of peptidases”; for WIRGARL [WIRGARL], “most susceptible sequences to the action of peptidases”.

Values taken from publication PMC12232376, “A Lysozyme-Derived Peptide Induces GLP‑1 Secretion in Mouse Jejunal Organoids and Modulates Glycemia in Rats” (Journal of Agricultural and Food Chemistry, 2025).
